Laboratory results as given in patent EP0881896B1, “SKIN TREATMENT WITH SALICYLIC ACID ESTERS AND RETINOIDS” (FD MANAGEMENT, INC., priority 1996, dated 1997).
Where two headings read alike, the source gives them in different places.

Tested on: sebocytes
Assay: In Vitro sebocyte Lipogenesis Assay (14-C acetate incorporation into lipid)
Assay type: cell-based, Human
Source text: Dermatologic disorders, chronoaging and environmental abuse all have some relationship to sebum production. The present example reports an in vitro analysis of sebum suppression by use of a combination of salicylate ester and retinoid.
Human sebaceous glands were isolated from the nose of a person and cultured using submerged tissue culture techniques (Bajor et al, J. Invest, Dermatol, 102:1994. P. 564). These sebocytes accumulate intracellular lipid droplets characteristic of mature human sebum.
Harvested and passaged sebocytes were added to each well of a 48 well tissue culture plate and incubated at 37°C in the presence of 7.5% CO2 for 14 days. The growth medium was changed three times per week. On the day of experimentation, the growth medium was removed and the sebocytes washed three times with phosphate buffered saline (PBS). Fresh PBS in 0.5 ml amount was added to each well and 10 microliters of active agent speculated to inhibit lipogenesis. Triplicate wells were utilized for each sample. […] The cultures were incubated at 37°C/7.5% CO2 for 30 minutes. Radioactive label was prepared by adding 100 ul of 14-C labelled acetic acid (Amersham, sodium salt, specific activity of 56 mCi/mmol) to 10 mL of 50 mM sodium acetate buffer. Then 50 ul was added to each well containing the sebocytes and active agents. The cultures were returned to the incubator for 4 hours. Thereafter the treatments and label were removed and the sebocytes rinsed three times with fresh PBS. Sebocytes were harvested and 10 microliters removed and set aside for protein assessment. The remaining samples containing the 14-C label were extracted and the label counted using a Beckman scintillation counter. Triplicates were performed for each sample.
For each 48 well tissue culture plate, 16 samples could be analyzed. Of these, 1 sample was reserved for PBS, 1 sample for DMSO, and 1 sample for phenol red leaving 13 remaining samples. When TDS (tridecyl salicylate) was analyzed in the presence of other compounds, an additional set of wells was used for measuring the effects of TDS alone. When multiple 48 well plates were used, TDS was included in each plate.

[1] = combination with tridecyl salicylate, conclusion from Tables VIII-X

With `CC1=C(/C=C/C(C)=C/C=C/C(C)=C/CO)C(C)(C)CCC1` [Retinol] the “activity with tridecyl salicylate (synergistic or additive)” value (“activity with tridecyl salicylate” below) (similar trials with retinol instead of retinyl linoleate, retinol at very low levels) was “synergistic”.
Work on `CCCCCCCCCCCCCOC(=O)c1ccccc1O` [TDS, tridecyl salicylate] yielded an inhibition at 50 µM (Homo sapiens, Table IX, 50 uM TDS alone, read-out: Reduction) of 17.9%, an inhibition at 100 µM (Homo sapiens, Table IX, 100 uM TDS alone, read-out: Reduction) of 30.8% and an inhibition at 10 µM (Homo sapiens, Table VIII, 10 uM TDS alone, read-out: Reduction) of 19.7%. For the same compound, the inhibition at 100 µM (Homo sapiens, Table X, 100 uM TDS alone, read-out: Reduction) was 38.7%.
For `CCCCCCCCCCCCCCCC(=O)OC/C=C(C)/C=C/C=C(C)/C=C/C1=C(C)CCCC1(C)C` [Retinyl Palmitate, retinyl palmitate, reference compound], the inhibition at 10 µM (Homo sapiens, Table X, Retinyl Palmitate 10 uM alone, read-out: Retinyl Palmitate % Actual Reduction (SD)) was 12.2%, the inhibition at 100 µM (Homo sapiens, Table X, Retinyl Palmitate 100 uM alone, read-out: Retinyl Palmitate % Actual Reduction (SD)) was 12% and the “activity with tridecyl salicylate” value [1] was “only an additive effect”.
`CCCCC/C=C\C/C=C\CCCCCCCC(=O)OC/C=C(C)/C=C/C=C(C)/C=C/C1=C(C)CCCC1(C)C` [Retinyl Linoleate, retinyl linoleate] gave an inhibition at 10 µM (Homo sapiens, Table IX, Retinyl Linoleate 10 uM alone, read-out: Retinyl Linoleate % Actual Reduction (SD)) of -15%, an inhibition at 50 µM (Homo sapiens, Table IX, Retinyl Linoleate 50 uM alone, read-out: Retinyl Linoleate % Actual Reduction (SD)) of -7.4% and an inhibition at 100 µM (Homo sapiens, Table IX, Retinyl Linoleate 100 uM alone, read-out: Retinyl Linoleate % Actual Reduction (SD)) of 1.9%. For the same compound, the inhibition at 0.1 µM (Homo sapiens, Table VIII, Retinyl Linoleate 100 nM alone, read-out: Retinyl Linoleate % Actual Reduction (SD)) was 4.4%, the inhibition at 1 µM (Homo sapiens, Table VIII, Retinyl Linoleate 1 uM alone, read-out: Retinyl Linoleate % Actual Reduction (SD)) was 6% and the inhibition at 10 µM (Homo sapiens, Table VIII, Retinyl Linoleate 10 uM alone, read-out: Retinyl Linoleate % Actual Reduction (SD)) was 13.8%. For the same compound, the inhibition at 100 µM (Homo sapiens, Table VIII, Retinyl Linoleate 100 uM alone, read-out: Retinyl Linoleate % Actual Reduction (SD)) was 20.3% and the “activity with tridecyl salicylate” value [1] was “synergistic activity”.
